# Test results published in US5767126A, “Alzheimer's disease treatment with tacrine metabolites” (priority 1991, dated 1998).
# Target: T1, acetylcholinesterase (Homo sapiens, UniProt P22303)
# Test: Acetylcholinesterase inhibition, photometric method of Ellman
# Assay type: biochemical
# Conditions: pI is a logarithmic measure of capacity to prevent the action of acetylcholinesterase, read-out: Cholinesterase inhibition pI (converted)
# T1 sequence (P22303 32-614): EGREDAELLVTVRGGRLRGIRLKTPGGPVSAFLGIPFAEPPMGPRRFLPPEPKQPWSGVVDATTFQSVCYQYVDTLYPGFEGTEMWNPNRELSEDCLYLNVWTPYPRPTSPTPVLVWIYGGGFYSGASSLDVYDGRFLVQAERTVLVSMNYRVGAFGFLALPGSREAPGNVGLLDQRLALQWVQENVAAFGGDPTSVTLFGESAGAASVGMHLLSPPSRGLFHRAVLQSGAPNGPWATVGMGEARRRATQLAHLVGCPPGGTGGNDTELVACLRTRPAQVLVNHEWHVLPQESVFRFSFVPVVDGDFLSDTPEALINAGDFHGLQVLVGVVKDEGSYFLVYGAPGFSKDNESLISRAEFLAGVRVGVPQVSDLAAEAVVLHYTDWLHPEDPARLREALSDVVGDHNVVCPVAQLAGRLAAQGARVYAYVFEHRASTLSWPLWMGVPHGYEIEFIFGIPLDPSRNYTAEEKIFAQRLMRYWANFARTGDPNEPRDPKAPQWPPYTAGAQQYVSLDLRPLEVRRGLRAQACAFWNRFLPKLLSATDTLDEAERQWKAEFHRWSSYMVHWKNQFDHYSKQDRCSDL
row,SMILES,IC50 [µM]
1,"Nc1c2c(nc3ccccc13)C(=O)CC(O)C2O (stereo not drawn) [9-amino-1,2-dihydroacridin-1,2-diol 4(3H)-one]",0.501
2,"Nc1c2c(nc3ccccc13)C(O)C(O)C(O)C2 (stereo not drawn) [9-amino-1,2,3,4-tetrahydroacridin-2,3,4-triol]",0.126
3,"Nc1c2c(nc3ccccc13)C=CC(O)C2O (stereo not drawn) [9-amino-1,2-dihydroacridin-1,2-diol]",0.631
4,"Nc1c2ccccc2nc2c(O)ccc(O)c12 [9-amino-1,4-dihydroxyacridine]",0.316
5,"Nc1c2c(nc3ccccc13)C(O)C(O)C(O)C2O (stereo not drawn) [9-amino-1,2,3,4-tetrahydroacridin 1,2,3,4-tetraol]",0.158
6,"Nc1c2ccccc2nc2c(O)cc(O)cc12 [9-amino-2,4-dihydroxyacridine]",0.158
7,"Nc1c2c(nc3ccccc13)CCC(O)C2O (stereo not drawn) [9-amino-1,2,3,4-tetrahydroacridin-1,2-diol]",1.26
8,"Nc1c2c(nc3ccccc13)C(O)C(O)CC2 (stereo not drawn) [9-amino-1,2,3,4-tetrahydroacridin-3,4-diol]",0.2

# Target: T1, acetylcholinesterase
# Test: not given
# Conditions: figure obtained from the study by P. N. Kaul (J. Pharm. Pharmacol. 1962); cited from earlier work
row,SMILES,Cholinesterase inhibition pI
1,Nc1ccnc2ccccc12 [4-aminoquinoline],4.3
